From patent US20070196866A1, “Modulators of ion channel trpa1” (IRM LLC, priority 2004, published 2007)

What was measured:
Type in all cases: cell-based
TRPV1 [1] = experiment: Calcium imaging of TRPV1-expressing CHO cells
adult rat DRG neurons = experiment: Calcium imaging of cultured adult rat DRG neurons
From the text: To further test this hypothesis, and to find out if the pungent compounds described above activate TRPA1 specifically, we performed calcium imaging of adult rat DRG neurons in response to cold, menthol, cinnamaldehyde, allyl isothiocyanate, and bradykinin. […] To a large extent, cinnamaldehyde and menthol activated mutually exclusive populations of cold-responsive neurons, as our model would predict. Allyl isothiocyanate appeared less specific as it activated 63% of the cold-responsive population (including a large overlap with menthol) and 12% of the cold-insensitive population. We have used 1.6 times the EC50 values of cinnamaldehyde and allyl isothiocyanate to enable us to directly compare DRG response profiles to these compounds. […] There were no significant differences in profiles of cinnamaldehyde and allyl isothiocyanate between cultures in the presence of 1 and 100 ng/ml of NGF.
In addition to the pungent sensory compounds, we have shown that BK can activate TRPA1.
To test if garlic extracts and allicin specifically activate TRPA1 in native neurons, we performed calcium imaging of adult rat DRG neurons. […] Addition of allicin or garlic extract to cultured rat DRG neurons activated a specific population of neurons.

TRPA1 [2] = molecular target: T1, TRPA1 (Homo sapiens, UniProt O75762); experiment: FLIPR dose response, hTRPA1; design: expressed in transfected cells
Target sequence in this assay (O75762 whole entry): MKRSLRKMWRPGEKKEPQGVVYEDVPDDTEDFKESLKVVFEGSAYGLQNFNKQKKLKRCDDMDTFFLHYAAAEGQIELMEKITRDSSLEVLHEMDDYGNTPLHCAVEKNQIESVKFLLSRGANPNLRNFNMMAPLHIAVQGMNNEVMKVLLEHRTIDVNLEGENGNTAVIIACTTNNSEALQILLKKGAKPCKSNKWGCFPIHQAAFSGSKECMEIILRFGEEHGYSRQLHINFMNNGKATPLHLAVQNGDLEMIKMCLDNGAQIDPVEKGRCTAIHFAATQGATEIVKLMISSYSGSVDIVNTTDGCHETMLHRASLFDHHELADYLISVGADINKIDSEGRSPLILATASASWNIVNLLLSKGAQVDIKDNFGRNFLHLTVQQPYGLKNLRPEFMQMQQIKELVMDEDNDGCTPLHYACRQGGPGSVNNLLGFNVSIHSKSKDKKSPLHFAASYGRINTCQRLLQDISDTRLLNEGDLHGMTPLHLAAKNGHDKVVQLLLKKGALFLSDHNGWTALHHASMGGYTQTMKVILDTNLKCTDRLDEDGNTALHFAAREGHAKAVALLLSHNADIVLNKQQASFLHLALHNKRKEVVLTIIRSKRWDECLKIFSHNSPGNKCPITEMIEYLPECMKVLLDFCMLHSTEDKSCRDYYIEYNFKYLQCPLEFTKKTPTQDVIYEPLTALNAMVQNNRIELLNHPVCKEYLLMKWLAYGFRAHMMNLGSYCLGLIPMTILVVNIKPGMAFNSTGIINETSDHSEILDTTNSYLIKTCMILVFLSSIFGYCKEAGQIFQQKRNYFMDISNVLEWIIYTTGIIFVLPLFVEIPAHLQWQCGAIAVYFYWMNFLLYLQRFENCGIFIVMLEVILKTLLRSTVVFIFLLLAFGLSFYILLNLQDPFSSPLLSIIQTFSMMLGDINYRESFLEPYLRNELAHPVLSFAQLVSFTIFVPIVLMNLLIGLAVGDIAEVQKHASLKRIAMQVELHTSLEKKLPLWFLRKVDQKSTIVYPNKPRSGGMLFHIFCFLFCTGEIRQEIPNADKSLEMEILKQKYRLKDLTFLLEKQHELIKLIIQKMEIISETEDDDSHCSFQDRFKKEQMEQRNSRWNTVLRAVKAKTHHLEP

mTRPA1 = molecular target: T2, mTRPA1 (Mus musculus, UniProt Q8BLA8); experiment: Ratiometric calcium imaging of CHO cells expressing mTRPA1
T2 construct: expressed in transfected cells; host or cells: CHO cells
T2 sequence (Q8BLA8 whole entry): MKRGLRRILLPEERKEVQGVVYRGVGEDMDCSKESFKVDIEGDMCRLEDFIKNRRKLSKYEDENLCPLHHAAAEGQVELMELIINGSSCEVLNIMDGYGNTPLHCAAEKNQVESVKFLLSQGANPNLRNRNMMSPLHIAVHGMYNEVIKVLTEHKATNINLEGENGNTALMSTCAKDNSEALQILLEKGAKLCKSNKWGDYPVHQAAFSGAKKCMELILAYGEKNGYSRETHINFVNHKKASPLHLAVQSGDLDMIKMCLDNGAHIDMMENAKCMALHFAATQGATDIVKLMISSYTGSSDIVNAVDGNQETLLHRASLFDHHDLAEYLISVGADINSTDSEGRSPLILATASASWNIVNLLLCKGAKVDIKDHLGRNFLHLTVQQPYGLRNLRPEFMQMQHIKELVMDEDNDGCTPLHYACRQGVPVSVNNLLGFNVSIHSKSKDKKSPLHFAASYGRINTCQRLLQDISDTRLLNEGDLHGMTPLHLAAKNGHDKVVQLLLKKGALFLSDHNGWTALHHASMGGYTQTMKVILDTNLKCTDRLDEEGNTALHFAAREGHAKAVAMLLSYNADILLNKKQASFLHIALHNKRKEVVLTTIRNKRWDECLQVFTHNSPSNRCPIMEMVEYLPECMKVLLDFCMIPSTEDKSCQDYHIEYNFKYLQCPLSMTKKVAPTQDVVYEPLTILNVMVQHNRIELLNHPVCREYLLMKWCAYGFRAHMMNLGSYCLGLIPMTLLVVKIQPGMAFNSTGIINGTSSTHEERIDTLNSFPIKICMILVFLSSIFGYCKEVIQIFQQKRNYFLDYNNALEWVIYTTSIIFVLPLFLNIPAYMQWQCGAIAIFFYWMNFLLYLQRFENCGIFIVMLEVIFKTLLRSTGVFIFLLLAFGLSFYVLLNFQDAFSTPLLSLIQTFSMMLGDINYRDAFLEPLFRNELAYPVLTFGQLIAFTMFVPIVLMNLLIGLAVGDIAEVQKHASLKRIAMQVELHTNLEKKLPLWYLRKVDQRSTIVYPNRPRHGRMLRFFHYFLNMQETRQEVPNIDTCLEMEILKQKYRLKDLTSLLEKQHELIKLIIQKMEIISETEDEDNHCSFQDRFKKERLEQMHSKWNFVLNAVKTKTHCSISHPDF

mouse TRPA1 = molecular target: T3, mouse TRPA1 (Mus musculus, UniProt Q8BLA8); experiment: FLIPR intracellular calcium assay, mouse TRPA1-expressing CHO cells
T3 construct: expressed in transfected cells; host or cells: CHO cells
T3 sequence (Q8BLA8 whole entry): as above

TRPA1 [3] = molecular target: T1, TRPA1; experiment: Electrophysiological recording of TRPA1-expressing oocytes; design: expressed in transfected cells; host or cells: oocytes; details: 1 μM
Target sequence in this assay (O75762 whole entry, species assumed): as the sequence (O75762 whole entry) above

TRPV1 [4] = experiment: FLIPR calcium assay, TRPV1-expressing CHO cells; details: 2 mM
From the text: We then tested these compounds against TRPM8 and TRPV1.

| SMILES | calcium response of TRPV1-expressing CHO cells (TRPV1 [1]) | response of capsaicin-insensitive neurons (adult rat DRG neurons) | DRG neuron population activated at high concentrations (adult rat DRG neurons; dilution 1:50 for garlic, 100 μM allicin) | DRG neuron population activated at low concentrations (adult rat DRG neurons; dilution 1:500 for garlic, 10 μM allicin) | EC50 (TRPA1 [2]) | calcium response of TRPA1-expressing CHO cells (mTRPA1) | EC50 (mouse TRPA1; FLIPR, mTRPA1, read-out: concentration for half maximal activation (EC50)) | activation of TRPA1-expressing oocytes (TRPA1 [3]) | activation of TRPV1-expressing cells, relative to TRPV1 response from saturating amounts of capsaicin (TRPV1 [4]) | specificity to mTRPA1 when tested against TRPM8 and TRPV1 (mouse TRPA1; 600 μM) | increase in intracellular calcium upon application (mouse TRPA1; FLIPR, mTRPA1 CHO cells) |
| --- | --- | --- | --- | --- | --- | --- | --- | --- | --- | --- | --- |
| C=CCS[S+]([O-])CC=C (centres unmarked) [allicin, diallyl disulfide oxide] | immediate and strong calcium response | never responded | activated the majority of capsaicin-sensitive DRG neurons | activated only the cinnamaldehyde-sensitive neurons | 1910 nM | immediate and strong calcium response | 1320 nM | able to activate |  |  |  |
| COC(=O)c1ccccc1O [Methyl salicylate] |  |  |  |  |  |  |  |  | 25% | specific to mTRPA1 | sharp increase in intracellular calcium |
